# Values of other authors in PMC11956011, “An Amazing 30-Year Journey around the DABO Family: A Medicinal Chemistry Lesson on a Versatile Class of Non-nucleoside HIV-1 Reverse Transcriptase Inhibitors” (Journal of Medicinal Chemistry, 2025).
# Read-outs that look alike come from different tables or passages of the source.
# What was measured:
# HIV-1 = conditions: for IC50: read-out: IC50 (HIV-1 cytopathic effect in cells)
# [1] = test system: HIV-1 RT (WT, recombinant); conditions: for IC50: read-out: IC50 (HIV-1 RT)
# [2] = test system: K103N HIV-1 mutant strain; conditions: for Fold-resistance K103N (EC50): Fig 10, in brackets
# [3] = test system: Y181C HIV-1 mutant strain; conditions: for Fold-resistance Y181C (EC50): Fig 10, in brackets
# [4] = test system: Y188L HIV-1 mutant strain
# Y181I HIV-1 RT = conditions: for ID50: Y181I: Fig 10; for Fold-resistance Y181I RT (ID50): Fig 10, in brackets
# L100I HIV-1 RT = conditions: for Fold-resistance L100I RT (ID50): Fig 10, in brackets
# [5] = read-out: EC50 against WT HIV-1
# [6] = Fig 10, read-out: EC50: NL4-3 wt
# [7] = Fig 5, read-out: EC50: NL4-3 wt
compound,measurement,setting,value
Cc1c(Cc2c(Cl)cccc2Cl)nc(SCc2cn(Cc3ccc(S(N)(=O)=O)cc3)nn2)[nH]c1=O [compound 93],EC50,HIV-1; Fig 9,3220 nM
same,SI,HIV-1; Fig 9,30
CCC(C)Sc1nc(O)cc(C(C)c2c(F)cccc2F)n1 (stereo not shown) [compound 34],SI,HIV-1; Fig 5,> 6666
same,EC50,"HIV-1; Fig 5, MT-4 cells",30 nM
same,CC50,mock-infected cells; Fig 5,> 200000 nM
CCC(C)Sc1nc(O)cc(Cc2c(F)cccc2F)n1 (stereo not shown) [compound 31],IC50,[1]; Fig 5,50 nM
same,SI,HIV-1; Fig 5,> 5000
same,CC50,mock-infected cells; Fig 5,> 200000 nM
CCOC1CSc2nc(=O)c(CC)c(Cc3cc(C)cc(C)c3)n21 (stereo not shown) [compound 24],SI,"HIV-1; CD50/ED50, Fig 4",> 140
same,ED50,HIV-1; Fig 4,700 nM
same,CD50,mock-infected cells; Fig 4,> 100 µM
Cc1c(Cc2c(Cl)cccc2Cl)nc(SCC(=O)Nc2ccc(Br)cc2)[nH]c1=O [compound 106],SI,HIV-1; Fig 10,> 1326
same,CC50,mock-infected cells; Fig 10,> 244000 nM
CCN(CC)CCc1cc(=O)[nH]c(SC)n1 [compound 184],CC50,mock-infected cells,250 µg/mL
"Nc1nc2c(c(=O)[nH]1)CCC2c1ccccc1 (stereo not shown) [compound 27, 2-amino-7-phenyl-6,7-dihydro-5H-cyclopenta[d]-4(3H)-pyrimidinone]",anti-HIV-1 activity (in words),HIV-1,lacked anti-HIV-1 activity
"COc1ccc(CSc2nc(C(C)c3c(F)cccc3F)c(C)c(=O)[nH]2)cc1 (stereo not shown) [compound 140, 6-[1-(2,6-difluorophenyl)ethyl]-2-[(4-methoxybenzyl)thio]-5-methyl-4(3H)-pyrimidinone]",EC50,HIV-1 NL4-3 wt; [5],0.025 nM
Cc1c(Cc2c(Cl)cccc2Cl)nc(SCC(=O)Nc2ccc(F)c(F)c2)[nH]c1=O [compound 108],SI,HIV-1; Fig 10,> 387
same,CC50,mock-infected cells; Fig 10,> 266000 nM
Cc1cccc(Cc2cc(=O)[nH]c(OC3CCCCC3)n2)c1 [compound 6],SI,"HIV-1; CC50/EC50, Fig 3",> 400
COc1ccc(Cn2cc(CSc3nc(Cc4c(Cl)cccc4Cl)c(C)c(=O)[nH]3)nn2)cc1 [compound 94],SI,HIV-1; Fig 9,6
CC(C)c1c(Cc2c(Cl)cccc2Cl)nc(SCC(=O)c2ccccc2)[nH]c1=O [compound 102],EC50,HIV-1 NL4-3 wt; [6],4 nM
same,EC50,[2]; Fig 10,5100 nM
same,Fold-resistance K103N (EC50),[2],1275
same,EC50,[3]; Fig 10,110 nM
same,Fold-resistance Y181C (EC50),[3],27
same,EC50,[4]; Fig 10,5500 nM
same,Fold-resistance Y188L (EC50),"[4]; Fig 10, in brackets",1375
same,ID50: WT,[1]; Fig 10,31 nM
same,ID50: Y181I,Y181I HIV-1 RT,16800 nM
same,Fold-resistance Y181I RT (ID50),Y181I HIV-1 RT,542
same,ID50: L100I,L100I HIV-1 RT; Fig 10,10100 nM
same,Fold-resistance L100I RT (ID50),L100I HIV-1 RT,326
same,SI,HIV-1; Fig 10,> 14000
same,CC50,mock-infected cells; Fig 10,> 56000 nM
"CCOCn1c(Cc2ccccc2)c(C(C)C)c(=O)[nH]c1=O [Emivirine, reference compound]",EC50,HIV-1; Fig 4,4.2 nM
same,SI,HIV-1; Fig 4,44000
same,CC50,mock-infected cells,186000 nM
O=C1c2ccccc2C(=O)N1CCSc1nc(Cc2c(F)cccc2F)cc(=O)[nH]1 [compound 75],EC50,HIV-1; Fig 9,17000 nM
same,SI,HIV-1; Fig 9,> 5.9
same,CC50,mock-infected cells; Fig 9,> 100000 nM
CCc1c(Cc2ccccc2Br)nc(SCc2ccc([N+](=O)[O-])cc2)[nH]c1=O [compound 88],SI,HIV-1; Fig 9,> 368
same,IC50,HIV-1; Fig 9,740 nM
same,CC50,mock-infected cells; Fig 9,> 272000 nM
CCC(C)Oc1nc(N)cc(S(=O)(=O)c2cccc(C)c2)n1 (stereo not shown) [compound 22],SI,HIV-1; Fig 4,> 43
same,CC50,mock-infected cells; Fig 4,> 200000 nM
CCc1c(Cc2cccc(Br)c2)nc(SCc2ccc(OC)cc2)[nH]c1=O [compound 89],SI,HIV-1; Fig 9,718
same,IC50,HIV-1; Fig 9,280 nM
same,CC50,mock-infected cells; Fig 9,201000 nM
CCc1c(Cc2ccccc2Br)nc(SCc2ccc(OC)cc2)[nH]c1=O [compound 87],SI,HIV-1; Fig 9,717
same,IC50,HIV-1; Fig 9,230 nM
same,CC50,mock-infected cells; Fig 9,165000 nM
CCC(C)Oc1nc(Cc2cc(C)cc(C)c2)c(C)c(=O)[nH]1 (stereo not shown) [compound 7],SI,"HIV-1; CC50/EC50, Fig 3",> 400
CCCCSc1nc(O)c(C)c(C(C)c2c(F)cccc2F)n1 (stereo not shown) [compound 37],EC50,"HIV-1; Fig 5, MT-4 cells",8 nM
CCc1c(Cc2c(F)cccc2F)nc(SCC(=O)c2ccccc2)[nH]c1=O [compound 104],EC50,HIV-1 NL4-3 wt; [6],12 nM
same,EC50,[2]; Fig 10,1300 nM
same,Fold-resistance K103N (EC50),[2],108
same,EC50,[3]; Fig 10,200 nM
same,Fold-resistance Y181C (EC50),[3],17
same,EC50,[4]; Fig 10,> 56000 nM
same,ID50: WT,[1]; Fig 10,43 nM
same,ID50: Y181I,Y181I HIV-1 RT,820 nM
same,Fold-resistance Y181I RT (ID50),Y181I HIV-1 RT,19
same,ID50: L100I,L100I HIV-1 RT; Fig 10,5400 nM
same,Fold-resistance L100I RT (ID50),L100I HIV-1 RT,126
same,SI,HIV-1; Fig 10,4667
same,CC50,mock-infected cells; Fig 10,56000 nM
CCC(C)Sc1nc(O)cc(Cc2c(Cl)cccc2Cl)n1 (stereo not shown) [compound 28],IC50,[1]; Fig 5,100 nM
same,SI,HIV-1; Fig 5,> 1428
same,CC50,mock-infected cells; Fig 5,> 200000 nM
CC(=O)c1ccc(Cn2cc(CSc3nc(Cc4c(Cl)cccc4Cl)c(C)c(=O)[nH]3)nn2)cc1 [compound 92],EC50,HIV-1; Fig 9,3860 nM
same,SI,HIV-1; Fig 9,8
CCCSc1nc(C(C)c2c(F)cccc2Cl)c(C)c(=O)[nH]1 (stereo not shown) [compound 42],EC50,HIV-1 NL4-3 wt; [7],0.05 nM
same,EC50,[2]; Fig 5,350 nM
same,EC50,[3]; Fig 5,260 nM
same,EC50,[4]; Fig 5,> 1500 nM
same,ID50: WT,[1]; Fig 5,0.9 nM
same,ID50: L100I,L100I HIV-1 RT; Fig 5,90 nM
same,CC50,mock-infected cells; Fig 5,> 1500 nM
Cc1c(C(C)c2c(F)cccc2F)nc(SCc2ccc([N+](=O)[O-])cc2)[nH]c1=O (stereo not shown) [compound 142],EC50,HIV-1 NL4-3 wt; [5],3.3 nM
Cc1c(C(C)c2c(F)cccc2Cl)nc(SC2CCCC2)[nH]c1=O (stereo not shown) [compound 43],EC50,HIV-1 NL4-3 wt; [7],0.03 nM
same,EC50,[2]; Fig 5,93 nM
same,EC50,[3]; Fig 5,230 nM
same,EC50,[4]; Fig 5,2900 nM
same,ID50: WT,[1]; Fig 5,11 nM
same,ID50: L100I,L100I HIV-1 RT; Fig 5,120 nM
same,CC50,mock-infected cells; Fig 5,> 15000 nM
Cc1c(C(C)c2c(F)cccc2F)nc(SCc2ccc(C#N)cc2)[nH]c1=O (stereo not shown) [compound 141],EC50,HIV-1 NL4-3 wt; [5],7.8 nM
Cc1c(C(C)c2c(F)cccc2Cl)nc(SC(C)C)[nH]c1=O (stereo not shown) [compound 41],EC50,[2]; Fig 5,140 nM
same,EC50,[3]; Fig 5,250 nM
same,EC50,[4]; Fig 5,3400 nM
same,CC50,mock-infected cells; Fig 5,> 15000 nM
CCC(C)Sc1nc(O)c(C)c(Cc2c(Cl)cccc2Cl)n1 (stereo not shown) [compound 29],IC50,[1]; Fig 5,60 nM
same,SI,HIV-1; Fig 5,> 4000
same,CC50,mock-infected cells; Fig 5,> 200000 nM
CC(c1cc(=O)[nH]c(SC2CCCC2)n1)c1c(F)cccc1Cl (stereo not shown) [compound 40],EC50,HIV-1 NL4-3 wt; [7],0.3 nM
same,EC50,[2]; Fig 5,900 nM
same,EC50,[3]; Fig 5,3000 nM
same,EC50,[4]; Fig 5,> 71000 nM
same,ID50: WT,[1]; Fig 5,15 nM
same,ID50: L100I,L100I HIV-1 RT; Fig 5,1100 nM
same,CC50,mock-infected cells; Fig 5,> 71000 nM
COc1cc(F)c(C(=O)c2ccnc(Nc3ccc(C#N)cc3)n2)c(F)c1 [compound 169],EC50: Y181C,"[3]; Fig 12, DAPY-DABO carbonyl hybrids",no activity
CCc1c(Cc2cc(C)cc(C)c2)nc(SCc2ccc([N+](=O)[O-])cc2)[nH]c1=O [compound 91],SI,HIV-1; Fig 9,> 1906
same,IC50,HIV-1; Fig 9,160 nM
same,CC50,mock-infected cells; Fig 9,> 305000 nM
Cc1cc(=O)[nH]c(SCCN2C(=O)c3ccccc3C2=O)n1 [compound 74],SI,HIV-1; Fig 9,61.6
Cc1c(Cc2c(Cl)cccc2Cl)nc(SCC(=O)Nc2ccc(Cl)cc2)[nH]c1=O [compound 105],SI,HIV-1; Fig 10,> 836
same,CC50,mock-infected cells; Fig 10,> 267000 nM
CCCCSc1nc(C(C)c2c(F)cccc2Cl)cc(=O)[nH]1 (stereo not shown) [compound 39],EC50,HIV-1 NL4-3 wt; [7],0.3 nM
same,EC50,[2]; Fig 5,1100 nM
same,EC50,[3]; Fig 5,3900 nM
same,EC50,[4]; Fig 5,5600 nM
same,ID50: WT,[1]; Fig 5,10 nM
same,ID50: L100I,L100I HIV-1 RT; Fig 5,600 nM
same,CC50,mock-infected cells; Fig 5,> 73000 nM
CCc1c(Cc2cc(C)cc(C)c2)nc(SCc2ccc(OC)cc2)[nH]c1=O [compound 90],SI,HIV-1; Fig 9,> 2642
same,IC50,HIV-1; Fig 9,120 nM
same,CC50,mock-infected cells; Fig 9,> 317000 nM
"2-(cyclopentylthio)-6-[(1R)-1-(2,6-difluorophenyl)ethyl]-5-methyl-4(3H)-pyrimidinone [[+]-38]",IC50,"[1]; Fig 5, printed without unit",8 nM
same,EC50,HIV-1,2 nM
same,SI,HIV-1,> 100000
same,CC50,mock-infected cells; Fig 5,> 200000 nM
Nc1cc(Cl)nc(Sc2ccccc2)n1 [compound 20],EC50,HIV-1; Fig 4,90000 nM
same,SI,HIV-1; Fig 4,2.3
